Values quoted from earlier work, collected in patent US20240105341A1, “SYSTEMS AND METHODS FOR ESTIMATING TUMOR GROWTH” (AMGEN INC., priority 2022, published 2024).
Read-outs that look alike come from different tables or passages of the source.

What was measured:
[1] = system: metastatic, castration-resistant prostate cancer (mCRPC); settings: FIRSTANA 2017, phase 3, chemo-naive
[2] = system: metastatic, castration-resistant prostate cancer (mCRPC); settings: PREVAIL 2014, phase 3, chemo-naive

SMILES | CR (number of complete responders) [1] | Median PFS [1] | PR + CR (number of responders) [1] | CR (number of complete responders) [2] | PR + CR (number of responders) [2]
CO[C@H]1C(=O)[C@]2(C)[C@@H](OC)C[C@H]3OC[C@@]3(OC(C)=O)[C@H]2[C@H](OC(=O)c2ccccc2)[C@]2(O)C[C@H](OC(=O)[C@H](O)[C@@H](NC(=O)OC(C)(C)C)c3ccccc3)C(C)=C1C2(C)C [Caba20] | 1 | 4.4 | 61 | – | –
CC(=O)O[C@@]12CO[C@@H]1C[C@H](O)[C@@]1(C)C(=O)[C@H](O)C3=C(C)[C@@H](OC(=O)[C@H](O)[C@@H](NC(=O)OC(C)(C)C)c4ccccc4)C[C@@](O)([C@@H](OC(=O)c4ccccc4)[C@H]21)C3(C)C [Doce75] | 1 | 5.3 | 54 | – | –
CNC(=O)c1ccc(N2C(=S)N(c3ccc(C#N)c(C(F)(F)F)c3)C(=O)C2(C)C)cc1F [Enza] | – | – | – | 78 | 233
